This passage reports MIC results from patent US11072591B2, “Tetrazole compounds and their use in the treatment of tuberculosis” (GLAXOSMITHKLINE INTELLECTUAL PROPERTY DEVELOPMENT LIMITED, priority 2017, dated 2021).

In brackets after ≈: the same amount, converted by molar mass. Read-outs that look alike come from different tables or passages of the source.

This assay has as its system M. tuberculosis H37Rv. Nature of the assay: Mycobacterium tuberculosis H37Rv Inhibition Assay (Whole Cell Assay), MIC. The assay is classed as cell-based.
The mark [1] stands for this setting: 144 h, M. tuberculosis H37Rv, Middlebrook 7H9 + ADC, 37° C. six days, resazurin readout, read-out: MIC_H37Rv.
Where [2] appears, read: M. tuberculosis H37Rv whole cell assay, value from repeated testing of the compound, read-out: MIC.

Take `O=S(=O)(NCCO)c1ccc(-c2nnn(CC3CCCCO3)n2)cc1` (racemic) [Example 7, N-(2-hydroxyethyl)-4-(2-((tetrahydro-2H-pyran-2-yl)methyl)-2H-tetrazol-5-yl)benzenesulfonamide]: under setting [1], the MIC was less than 0.1 µM. Consider `Cc1cc(S(=O)(=O)NCCO)ccc1-c1nnn(CC2CCCCO2)n1` (single isomer, unassigned) [Example 74 Isomer 1, N-(2-hydroxyethyl)-3-methyl-4-(2-((tetrahydro-2H-pyran-2-yl)methyl)-2H-tetrazol-5-yl)benzenesulfonamide], for which the MIC under setting [1] is 5 to 10 µM. `COc1cc(-c2nnn(C(C)c3ccc(F)cc3)n2)ccc1S(=O)(=O)NCC(N)=O` (single isomer, unassigned) [Example 115 Isomer 2, 2-(4-(2-(1-(4-fluorophenyl)ethyl)-2H-tetrazol-5-yl)-2-methoxyphenylsulfonamido)acetamide]: under setting [2], the MIC is 0.45 to 1.25 µM (≈ 0.196 to 0.543 µg/mL). Turning to `O=S(=O)(NCCO)c1ccc(-c2nnn(Cc3ccncn3)n2)cc1` [Example 2, N-(2-hydroxyethyl)-4-(2-(pyrimidin-4-ylmethyl)-2H-tetrazol-5-yl)benzenesulfonamide], the MIC under setting [1] was 1 to 5 µM. Still for that read-out and setting: under `CNS(=O)(=O)c1ccc(-c2nnn(Cc3ccc(F)cc3)n2)cc1` [Example 3, 4-(2-(4-fluorobenzyl)-2H-tetrazol-5-yl)-N-methylbenzenesulfonamide] stands 1 to 5 µM. Same read-out and setting: under `CNS(=O)(=O)c1ccc(-c2nnn(Cc3ccncc3)n2)cc1` [Example 4, N-methyl-4-(2-(pyridin-4-ylmethyl)-2H-tetrazol-5-yl)benzenesulfonamide] stands 1 to 5 µM; under `CCNS(=O)(=O)c1ccc(-c2nnn(Cc3ccncc3)n2)cc1` [Example 5, N-ethyl-4-(2-(pyridin-4-ylmethyl)-2H-tetrazol-5-yl)benzenesulfonamide], 10 to 25 µM. In the case of `COc1ccc(Cn2nnc(-c3ccc(S(=O)(=O)NCCO)cc3)n2)cc1` [Example 6, N-(2-hydroxyethyl)-4-(2-(4-methoxybenzyl)-2H-tetrazol-5-yl)benzenesulfonamide], under setting [1], the MIC is less than 0.1 µM. As to `O=S(=O)(NCCO)c1ccc(-c2nnn(Cc3ccc(C(F)F)cc3)n2)cc1` [Example 10], under setting [1], the MIC was less than 0.1 µM. Regarding `O=S(=O)(NCCO)c1ccc(-c2nnn(CC3CCC(F)(F)CC3)n2)cc1` [Example 11], the MIC under setting [1] was less than 0.1 µM. For `C[C@@H](O)CNS(=O)(=O)c1ccc(-c2nnn(Cc3ccncc3)n2)cc1` [Example 12], under setting [1], the MIC was less than 0.1 µM. Take `C[C@@H](O)CNS(=O)(=O)c1ccc(-c2nnn(CC3CCC(F)(F)CC3)n2)cc1` [Example 13]: the MIC under setting [1] was in the range of 10 to 25 µM. For `C[C@H](O)CNS(=O)(=O)c1ccc(-c2nnn(Cc3ccc(F)cc3)n2)cc1` [Example 14], under setting [1], the MIC lay in the range of 1 to 5 µM. Consider `O=S(=O)(NC(CO)CO)c1ccc(-c2nnn(Cc3ccc(F)cc3)n2)cc1` [Example 15], for which the MIC under setting [1] was in the range of 5 to 10 µM. With `O=S(=O)(NC(CO)CO)c1ccc(-c2nnn(Cc3ccncc3)n2)cc1` [Example 16], the MIC under setting [1] lay in the range of 5 to 10 µM.

As to `O=S(=O)(NCC(O)CO)c1ccc(-c2nnn(Cc3ccc(F)cc3)n2)cc1` (stereo not drawn) [Example 17], the MIC under setting [1] was in the range of 5 to 10 µM.

As for `O=S(=O)(NCCO)c1ccc(-c2nnn(Cc3ccc(Cl)cn3)n2)cc1` [Example 18, 4-(2-((5-chloropyridin-2-yl)methyl)-2H-tetrazol-5-yl)-N-(2-hydroxyethyl)benzenesulfonamide], the MIC under setting [1] was less than 0.1 µM. For the compound `CCc1ccc(Cn2nnc(-c3ccc(S(=O)(=O)NCCO)cc3)n2)cc1` [Example 19], the MIC under setting [1] was in the range of 1 to 5 µM. With `N#Cc1ccc(Cn2nnc(-c3ccc(S(=O)(=O)NCCO)cc3)n2)nc1` [Example 20], the MIC under setting [1] is less than 0.1 µM. Consider `O=S(=O)(NCCO)c1ccc(-c2nnn(Cc3ncc(F)cc3F)n2)cc1` [Example 21], for which the MIC under setting [1] is 1 to 5 µM. Same read-out and setting: under `Cc1cccc(Cn2nnc(-c3ccc(S(=O)(=O)NCCO)cc3)n2)n1` [Example 22] stands 10 to 25 µM; under `Cc1nccc(Cn2nnc(-c3ccc(S(=O)(=O)NCCO)cc3)n2)n1` [Example 23], 5 to 10 µM; under `C[C@@H](O)CNS(=O)(=O)c1ccc(-c2nnn(Cc3ccc(F)cc3)n2)cc1` [Example 24], less than 0.1 µM. With `C[C@@H](O)CNS(=O)(=O)c1ccc(-c2nnn(Cc3ccc(F)cn3)n2)cc1` [Example 25], the MIC under setting [1] was less than 0.1 µM and the MIC under setting [2] worked out at 0.6 µM (≈ 0.235 µg/mL). For `COc1ccc(Cn2nnc(-c3ccc(S(=O)(=O)NC[C@@H](C)O)cc3)n2)nc1` [Example 26], the MIC under setting [1] is 10 to 25 µM. For the compound `Cc1ccc(Cn2nnc(-c3ccc(S(=O)(=O)NC[C@@H](C)O)cc3)n2)nc1` [Example 27], the MIC under setting [1] lay in the range of 10 to 25 µM. On to `COc1ccc(Cn2nnc(-c3ccc(S(=O)(=O)NC[C@@H](C)O)cc3)n2)cc1` [Example 28], for which the MIC under setting [1] was in the range of 1 to 5 µM. Regarding `O=S(=O)(NCCO)c1ccc(-c2nnn(Cc3ccc(F)cn3)n2)cc1` [Example 29, 4-(2-((5-fluoropyridin-2-yl)methyl)-2H-tetrazol-5-yl)-N-(2-hydroxyethyl)benzenesulfonamide], the MIC is less than 0.1 µM under setting [1] and 0.07 to 0.16 µM (≈ 0.0265 to 0.0605 µg/mL) under setting [2]. Turning to `COc1ccc(Cn2nnc(-c3ccc(S(=O)(=O)NCCO)cc3)n2)cc1F` [Example 30], the MIC under setting [1] is less than 0.1 µM. For `COc1ccc(Cn2nnc(-c3ccc(S(=O)(=O)NCCO)cc3)n2)nc1` [Example 31], the MIC under setting [1] was in the range of 1 to 5 µM.

Turning to `Cc1ccc(Cn2nnc(-c3ccc(S(=O)(=O)NCCO)cc3)n2)nc1` [Example 32], the MIC under setting [1] is 1 to 5 µM. For the compound `O=S(=O)(NCCO)c1ccc(-c2nnn(Cc3ccncc3)n2)cc1` [Example 33], under setting [1], the MIC is less than 0.1 µM. For `Cc1cc(Cn2nnc(-c3ccc(S(=O)(=O)NCCO)cc3)n2)ccn1` [Example 34], the MIC under setting [1] fell in the range of 1 to 5 µM. For `NC(=O)CNS(=O)(=O)c1ccc(-c2nnn(Cc3ccc(F)cn3)n2)cc1` [Example 38], under setting [1], the MIC was less than 0.1 µM. As for `NC(=O)CNS(=O)(=O)c1ccc(-c2nnn(CC3CCC(F)(F)CC3)n2)cc1` [Example 39], under setting [1], the MIC is less than 0.1 µM.

Consider `Cc1ccc(Cn2nnc(-c3ccc(S(=O)(=O)NCC(N)=O)cc3)n2)nc1` [Example 40], for which the MIC under setting [1] is less than 0.1 µM. Turning to `Cc1cc(Cn2nnc(-c3ccc(S(=O)(=O)NCC(N)=O)cc3)n2)ccn1` [Example 42], the MIC under setting [1] is less than 0.1 µM.

In the case of `COC(=O)CNS(=O)(=O)c1ccc(-c2nnn(Cc3ccc(F)cc3)n2)cc1` [Example 43], the MIC under setting [1] was in the range of 1 to 5 µM. Consider `COC(=O)CNS(=O)(=O)c1ccc(-c2nnn(Cc3ccncc3)n2)cc1` [Example 44], for which, under setting [1], the MIC was in the range of 5 to 10 µM. `NC(=O)CNS(=O)(=O)c1ccc(-c2nnn(Cc3ccncc3)n2)cc1` [Example 46, 2-(4-(2-(pyridin-4-ylmethyl)-2H-tetrazol-5-yl)phenylsulfonamido)acetamide]: the MIC under setting [1] is less than 0.1 µM. `COc1cc(-c2nnn(Cc3ccc(F)cc3)n2)ccc1S(=O)(=O)NCCO` [Example 47, 4-(2-(4-fluorobenzyl)-2H-tetrazol-5-yl)-N-(2-hydroxyethyl)-2-methoxybenzenesulfonamide]: under setting [1], the MIC is less than 0.1 µM.

As for `COc1cc(-c2nnn(Cc3ccncc3)n2)ccc1S(=O)(=O)NCCO` [Example 48, N-(2-hydroxyethyl)-2-methoxy-4-(2-(pyridin-4-ylmethyl)-2H-tetrazol-5-yl)benzenesulfonamide], the MIC under setting [1] was in the range of 1 to 5 µM. Consider `COc1cc(-c2nnn(Cc3ccc(C#N)cc3)n2)ccc1S(=O)(=O)NCCO` [Example 49, 4-(2-(4-cyanobenzyl)-2H-tetrazol-5-yl)-N-(2-hydroxyethyl)-2-methoxybenzenesulfonamide], for which the MIC under setting [1] was less than 0.1 µM.

Take `COc1cc(-c2nnn(Cc3ccc(F)cn3)n2)ccc1S(=O)(=O)NCCO` [Example 50, 4-(2-((5-fluoropyridin-2-yl)methyl)-2H-tetrazol-5-yl)-N-(2-hydroxyethyl)-2-methoxybenzenesulfonamide]: under setting [1], the MIC is 1 to 5 µM. With `CNS(=O)(=O)c1ccc(-c2nnn(Cc3ccncc3)n2)cc1OC` [Example 51, 2-methoxy-N-methyl-4-(2-(pyridin-4-ylmethyl)-2H-tetrazol-5-yl)benzenesulfonamide], the MIC under setting [1] is 1 to 5 µM. Take `COc1cc(-c2nnn(Cc3ccc(F)cc3)n2)ccc1S(=O)(=O)NCC(N)=O` [Example 53, 2-(4-(2-(4-fluorobenzyl)-2H-tetrazol-5-yl)-2-methoxyphenylsulfonamido)acetamide]: the MIC under setting [2] amounted to 0.04 µM (≈ 0.0168 µg/mL). As to `COc1cc(-c2nnn(Cc3ccncc3)n2)ccc1S(=O)(=O)NCC(N)=O` [Example 55], the MIC under setting [1] is less than 0.1 µM. With `N#CCNS(=O)(=O)c1ccc(-c2nnn(Cc3ccncc3)n2)cc1` [Example 56], the MIC under setting [1] was less than 0.1 µM. `N#CCNS(=O)(=O)c1ccc(-c2nnn(Cc3ccncn3)n2)cc1` [Example 58]: under setting [1], the MIC was less than 0.1 µM. On to `N#CCNS(=O)(=O)c1ccc(-c2cn(Cc3ccncc3)nn2)cc1` [Example 60], for which, under setting [1], the MIC was less than 0.1 µM. In the case of `N#CCNS(=O)(=O)c1ccc(-c2cn(Cc3ccc(F)cn3)nn2)cc1` [Example 61], the MIC under setting [1] was less than 0.1 µM. On the same count and under the same terms, under `O=S(=O)(NCCO)c1ccc(-c2cn(Cc3ccc(F)cn3)nn2)cc1` [Example 62, (4-(1-((5-fluoropyridin-2-yl)methyl)-1H-1,2,3-triazol-4-yl)-N-(2-hydroxyethyl)benzenesulfonamide)] stands 1 to 5 µM; under `COc1ccc(Cn2cc(-c3ccc(S(=O)(=O)NCCO)cc3)nn2)cc1` [Example 63], less than 0.1 µM.

Turning to `O=S(=O)(NCCO)c1ccc(-c2cn(Cc3ccncc3)nn2)cc1` [Example 65], under setting [1], the MIC is less than 0.1 µM. On to `N#Cc1ccc(Cn2cc(-c3ccc(S(=O)(=O)NCCO)cc3)nn2)cc1` [Example 66], for which the MIC under setting [1] was less than 0.1 µM. For the compound `Cc1ccc(Cn2cc(-c3ccc(S(=O)(=O)NCCO)cc3)nn2)nc1` [Example 67], under setting [1], the MIC lay within 10 to 25 µM. `NC(=O)CNS(=O)(=O)c1ccc(-c2cn(CC3CCC(F)(F)CC3)nn2)cc1` [Example 69]: the MIC under setting [1] is 1 to 5 µM. With `C[C@@H](O)CNS(=O)(=O)c1ccc(-c2cn(Cc3ccc(F)cc3)nn2)cc1` [Example 70, (R)-4-(1-(4-fluorobenzyl)-1H-1,2,3-triazol-4-yl)-N-(2-hydroxypropyl) benzenesulfonamide], the MIC under setting [1] was less than 0.1 µM.
